The text below walks through data of ChEMBL document CHEMBL4831531, “Mangostanin Derivatives as Novel and Orally Active Phosphodiesterase 4 Inhibitors for the Treatment of Idiopathic Pulmonary Fibrosis with Improved Safety” (J Med Chem, 2021).

For data set [1], the system named is Rattus norvegicus. Kind of data set: Anti-idiopathic pulmonary fibrotic activity in bleomycin-induced Sprague-Dawley rat model assessed as prevention of structural damage of lungs at 150 mg/kg, po treated for 28 consecutive days by Hematoxylin and eosin staining based assay relative to control. The data set is classed as functional, organism-based.
Data set [2] concerns Rattus norvegicus. Kind of data set: Anti-idiopathic pulmonary fibrotic activity in bleomycin-induced Sprague-Dawley rat model assessed as decrease in alpha-smooth muscle actin protein expression of lungs at 150 mg/kg, po treated for 28 consecutive days by Western blot analysis. The data set is classed as functional, organism-based. For orientation: A western blot detects proteins with antibodies after separation by electrophoresis.

Data set [3] has as its system Rattus norvegicus. Kind of data set: Anti-idiopathic pulmonary fibrotic activity in bleomycin-induced Sprague-Dawley rat model assessed as inhibition of collagen deposition around trachea and cell hyperplasia at 150 mg/kg, po treated for 28 consecutive days by Hematoxylin and eosin staining based assay relative to control. Type of data set: functional.
The subject of data set [4] is Rattus norvegicus. Kind of data set: Anti-inflammatory activity in bleomycin-induced idiopathic pulmonary fibrotic activity Sprague-Dawley rat model assessed as decrease in NO production in lungs at 150 mg/kg, po treated for 28 consecutive days. Type of data set: functional, organism-based.
In data set [5] the test system is Rattus norvegicus. In words: Anti-idiopathic pulmonary fibrotic activity in bleomycin-induced Sprague-Dawley rat model assessed as decrease in fibronectin expression of lungs at 150 mg/kg, po treated for 28 consecutive days by Western blot analysis. Type of data set: functional, organism-based.
Data set [6] deals with 3',5'-cyclic-AMP phosphodiesterase 4D (Homo sapiens, UniProt Q08499). Kind of data set: Inhibition of PDE4D2 (86-413) (unknown origin) expressed in Escherichia coli BL21 assessed as using [3H]-cAMP as substrate measured for 15 mins by liquid scintillation counting analysis.
The nature of data set [7]: Toxicity in dog assessed as emesis at 1 mg/kg, po. The data set is classed as organism-based, Canis lupus familiaris. The following applies: in vivo.

The source made the active and inactive calls. The rule behind the calls is not given here.

3',5'-cyclic-AMP phosphodiesterase 4D, sequence (Q08499 whole entry): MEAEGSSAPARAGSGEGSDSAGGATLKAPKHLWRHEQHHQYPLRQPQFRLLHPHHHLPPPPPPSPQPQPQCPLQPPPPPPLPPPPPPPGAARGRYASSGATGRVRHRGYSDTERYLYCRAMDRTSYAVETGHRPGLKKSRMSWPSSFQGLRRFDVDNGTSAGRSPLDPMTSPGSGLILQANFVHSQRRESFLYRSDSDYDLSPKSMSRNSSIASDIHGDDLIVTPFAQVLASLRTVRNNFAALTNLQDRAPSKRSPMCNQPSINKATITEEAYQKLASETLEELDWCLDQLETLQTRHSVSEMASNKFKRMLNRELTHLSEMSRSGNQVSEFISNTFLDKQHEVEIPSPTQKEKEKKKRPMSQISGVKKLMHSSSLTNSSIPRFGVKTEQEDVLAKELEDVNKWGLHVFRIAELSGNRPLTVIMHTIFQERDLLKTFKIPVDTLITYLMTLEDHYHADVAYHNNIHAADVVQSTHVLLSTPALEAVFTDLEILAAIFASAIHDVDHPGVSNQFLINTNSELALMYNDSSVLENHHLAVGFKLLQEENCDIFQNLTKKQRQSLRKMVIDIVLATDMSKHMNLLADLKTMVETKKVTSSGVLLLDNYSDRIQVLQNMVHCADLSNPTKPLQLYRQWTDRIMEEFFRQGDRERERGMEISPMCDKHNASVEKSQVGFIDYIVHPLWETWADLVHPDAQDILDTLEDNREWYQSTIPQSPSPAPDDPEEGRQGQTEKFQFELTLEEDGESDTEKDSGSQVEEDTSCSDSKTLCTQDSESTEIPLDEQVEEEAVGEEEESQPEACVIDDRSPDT

`Cc1ccc(=O)n(-c2ccccc2)c1` [PIRFENIDONE]: the outcome in the data set on Rattus norvegicus [1], in the data set on Rattus norvegicus [2], in the data set with Rattus norvegicus [4] and in the data set with Rattus norvegicus [5] was Active. Moreover, in the data set with Rattus norvegicus [3], the inhibition in vivo (in general, the percentage by which the read-out fell short of the control) at 150 mg/kg is 100%. With `COc1c(O)cc2oc3cc4c(c(OCCCCCCC(=O)O)c3c(=O)c2c1CC=C(C)C)C=CC(C)(C)O4`, the IC50 (commonly the concentration that inhibits the measured activity by half) in data set [6] came to 300 nM.

With `COc1c(O)cc2oc3cc4c(c(OC/C=C/C(=O)O)c3c(=O)c2c1CC=C(C)C)C=CC(C)(C)O4`, the IC50 in data set [6] is 494 nM.

Consider `CCOC(=O)/C=C/COc1c2c(cc3oc4cc(OCc5ccc(F)cc5)c(OC)c(CC=C(C)C)c4c(=O)c13)OC(C)(C)C=C2`, for which the IC50 in data set [6] amounted to 24 nM. Turning to `CCOc1cc2oc3cc4c(c(OC/C=C/C(=O)O)c3c(=O)c2c(CC=C(C)C)c1OC)C=CC(C)(C)O4`, the IC50 in data set [6] was determined as 48 nM. Consider `COc1c(O)cc2oc3cc4c(c(OCCCCCC(=O)O)c3c(=O)c2c1CC=C(C)C)C=CC(C)(C)O4`, for which the IC50 in data set [6] is 25 nM. In the case of `COc1c(OCc2cccc(F)c2)cc2oc3cc4c(c(OC/C=C/C(=O)O)c3c(=O)c2c1CC=C(C)C)C=CC(C)(C)O4`, the IC50 in data set [6] was over 1000 nM. Consider `COc1c(O)cc2oc3cc4c(c(OCCCCC(=O)O)c3c(=O)c2c1CC=C(C)C)C=CC(C)(C)O4`, for which the half-inhibitory concentration (IC50) in data set [6] is 24 nM. Same read-out and setting: the result for `COc1c(OCc2ccc(S(C)(=O)=O)cc2)cc2oc3cc4c(c(OC/C=C/C(=O)O)c3c(=O)c2c1CC=C(C)C)C=CC(C)(C)O4` reads 18 nM. For the molecule `COc1c(OCc2cccc(C)c2)cc2oc3cc4c(c(OC/C=C/C(=O)O)c3c(=O)c2c1CC=C(C)C)C=CC(C)(C)O4`, the IC50 in data set [6] is over 1000 nM. In the case of `CCOC(=O)/C=C/COc1c2c(cc3oc4cc(OCc5cccc(F)c5)c(OC)c(CC=C(C)C)c4c(=O)c13)OC(C)(C)C=C2`, the IC50 in data set [6] turned out to be 6.5 nM. In the case of `COc1c(OCc2ccc(F)cc2)cc2oc3cc4c(c(OC/C=C\C(=O)O)c3c(=O)c2c1CC=C(C)C)C=CC(C)(C)O4`, the IC50 in data set [6] came to 20 nM.

For the molecule `COc1cccc(COc2cc3oc4cc5c(c(OC/C=C/C(=O)O)c4c(=O)c3c(CC=C(C)C)c2OC)C=CC(C)(C)O5)c1`, in data set [6], the IC50 is 16 nM. Still for that read-out and setting: in the case of `COc1c(OC(C)C)cc2oc3cc4c(c(OC/C=C/C(=O)O)c3c(=O)c2c1CC=C(C)C)C=CC(C)(C)O4` it was 31 nM. For `COc1c(O)cc2oc3cc4c(c(OCC(=O)O)c3c(=O)c2c1CC=C(C)C)C=CC(C)(C)O4`, the IC50 in data set [6] was determined as 17 nM. On the same count and under the same terms, in the case of `COc1cc2oc3cc4c(c(OC/C=C/C(=O)O)c3c(=O)c2c(CC=C(C)C)c1OC)C=CC(C)(C)O4` it was 30 nM; in that of `COc1c(OCc2ccccc2)cc2oc3cc4c(c(OC/C=C/C(=O)O)c3c(=O)c2c1CC=C(C)C)C=CC(C)(C)O4`, 24 nM.

As to `COc1c(OCc2ccc(F)cc2)cc2oc3cc4c(c(OCCCC(=O)O)c3c(=O)c2c1CC=C(C)C)C=CC(C)(C)O4`, the IC50 in data set [6] was 4.2 nM. Consider `COc1c(OCCCCCCC(=O)O)cc2oc3cc4c(c(O)c3c(=O)c2c1CC=C(C)C)C=CC(C)(C)O4`, for which, in data set [6], the IC50 amounted to 19 nM.

Turning to `COc1ccc(C2CNC(=O)C2)cc1OC1CCCC1` (stereo not given) [ROLIPRAM], in data set [7], the Activity result is “Toxic”. For the molecule `COc1c(O)cc2oc3cc4c(c(OCCCC(=O)O)c3c(=O)c2c1CC=C(C)C)C=CC(C)(C)O4`, in data set [6], the IC50 was over 1000 nM.
